Molecules are shown by their SMILES. pIC50: −log10 of the molar value.

The target in this assay is T1, AHR (Homo sapiens, UniProt P35869).
T1 construct: U87 glioblastoma cells (ATCC) endogenously expressing AHR; host or cells: U87 glioblastoma cells, stably transfected with DRE-firefly luciferase and renilla reporter constructs
T1 sequence (P35869 11-848): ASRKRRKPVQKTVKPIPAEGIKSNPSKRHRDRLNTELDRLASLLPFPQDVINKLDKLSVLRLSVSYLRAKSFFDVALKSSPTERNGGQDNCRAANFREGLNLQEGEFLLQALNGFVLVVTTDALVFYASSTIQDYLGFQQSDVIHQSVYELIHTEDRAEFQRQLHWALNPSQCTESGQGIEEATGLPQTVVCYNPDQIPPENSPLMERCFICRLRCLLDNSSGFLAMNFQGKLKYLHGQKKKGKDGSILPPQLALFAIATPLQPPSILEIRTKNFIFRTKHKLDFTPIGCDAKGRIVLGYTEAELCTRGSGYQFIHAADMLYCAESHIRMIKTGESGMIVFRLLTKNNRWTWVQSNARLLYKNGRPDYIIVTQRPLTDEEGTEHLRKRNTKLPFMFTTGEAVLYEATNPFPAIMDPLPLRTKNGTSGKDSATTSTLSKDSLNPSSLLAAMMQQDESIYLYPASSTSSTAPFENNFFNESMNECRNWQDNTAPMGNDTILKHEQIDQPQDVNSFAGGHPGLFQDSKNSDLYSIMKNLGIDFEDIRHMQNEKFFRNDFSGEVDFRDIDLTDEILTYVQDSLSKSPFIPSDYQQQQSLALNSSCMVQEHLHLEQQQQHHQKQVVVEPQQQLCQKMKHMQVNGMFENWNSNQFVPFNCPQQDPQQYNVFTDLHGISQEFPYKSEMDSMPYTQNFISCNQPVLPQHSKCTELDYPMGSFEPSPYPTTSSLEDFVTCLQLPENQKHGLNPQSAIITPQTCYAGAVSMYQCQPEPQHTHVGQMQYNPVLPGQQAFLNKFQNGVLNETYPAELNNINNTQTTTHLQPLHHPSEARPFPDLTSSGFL
Kind of assay: In vitro assay 1: AHR-luc transactivation assay, antagonism in human cell line (U87 glioblastoma cells prestimulated with kynurenic acid). Format: cell-based. The method, then: Transactivation Assay in Human Cell Line (In Vitro Assays 1 and 2)
Transactivation assays were carried out in U87 glioblastoma cells (ATCC) endogenously expressing AHR. In addition the cells were stably transfected with an AHR inducible firefly luciferase reporter gene construct that carried AHR-binding sites (DRE) in its promoter and a renilla reporter gene construct with constitutively active promoter. Kynurenic acid is an endogenous AHR activating ligand and was used to prestimulate test cells prior to testing the antagonistic properties of compounds.
In Vitro Assay 1: Antagonism in Human Cell Line
Cells in medium (tryptophan free RPMI, 1% FCS, 2 mM Glutamine) supplemented with 150 μM kynurenic acid were grown for 20 hours in absence (negative control) or presence of increasing concentrations of test compounds (typical dilutions: 72 pmol/L, 0.25 nmol/L, 0.89 nmol/L; 3.1 nmol/L, 11 nmol/L, 38 nmol/L, 130 nmol/L, 470 nmol/L, 1.6 μmol/L, 5.7 μmol/L and 20 μmol/L in duplicates). As positive inhibition control cells supplemented with 150 μM kynurenic acid were incubated in presence of 5 μM Staurosporin. Normalization was done by positive and negative controls.
Firefly luciferase and Renilla activity was determined by the DualGlo Luciferase Assay System (Promega, #2920). Renilla activity was used to assess toxic effects of compounds.
One may read the pIC50 as −log10 of the IC50, conventionally taken in molar units. A low value points to a high IC50. Consider `C[C@@H](CO)NC(=O)c1cc(-c2ccc(C(F)(F)F)nc2)nn(-c2ccc(F)c(F)c2)c1=O` [Example 3, 2-(3,4-Difluorophenyl)-N-[(2S)-1-hydroxypropan-2-yl]-3-oxo-6-[6-(trifluoromethyl)pyridin-3-yl]-2,3-dihydropyridazine-4-carboxamide], for which the pIC50 was 6.21.

In turn, `Cc1ccc(-c2cc(C(=O)N[C@@H](C)CO)c(=O)n(-c3cccc(F)c3)n2)nc1` [Example 12, 2-(3-Fluorophenyl)-N-[(2S)-1-hydroxypropan-2-yl]-6-(5-methylpyridin-2-yl)-3-oxo-2,3-dihydropyridazine-4-carboxamide] showed a pIC50 of 5.97.

`C[C@H](NC(=O)c1cc(-c2cnc(C(F)(F)F)nc2)nn(-c2cccc(F)c2)c1=O)C(C)(C)O` [Example 14, 2-(3-Fluorophenyl)-N-[(2S)-3-hydroxy-3-methylbutan-2-yl]-3-oxo-6-[2-(trifluoromethyl)pyrimidin-5-yl]-2,3-dihydropyridazine-4-carboxamide] gave a pIC50 of 6.66.

With `O=C(NC[C@H](O)C(F)F)c1cc(-c2cnc(C(F)(F)F)nc2)nn(-c2cccc(F)c2)c1=O` [Example 15, N-[(2S)-3,3-Difluoro-2-hydroxypropyl]-2-(3-fluorophenyl)-3-oxo-6-[2-(trifluoromethyl)pyrimidin-5-yl]-2,3-dihydropyridazine-4-carboxamide], the negative-log IC50 (pIC50) was 6.51.

`C[C@H](O)[C@H](C)NC(=O)c1cc(-c2cnc(C(F)(F)F)nc2)nn(-c2cccc(F)c2)c1=O` [Example 16, 2-(3-Fluorophenyl)-N-[(2S,3S)-3-hydroxybutan-2-yl]-3-oxo-6-[2-(trifluoromethyl)pyrimidin-5-yl]-2,3-dihydropyridazine-4-carboxamide] gave a negative-log IC50 (pIC50) of 6.77.

In turn, `CC(C)(O)CNC(=O)c1cc(-c2cnc(C(F)(F)F)nc2)nn(-c2cccc(F)c2)c1=O` [Example 17, 2-(3-Fluorophenyl)-N-(2-hydroxy-2-methylpropyl)-3-oxo-6-[2-(trifluoromethyl)pyrimidin-5-yl]-2,3-dihydropyridazine-4-carboxamide] had a pIC50 of 5.69.

`COc1ccc(-c2cc(C(=O)N[C@H](C)C(C)(C)O)c(=O)n(-c3cccc(F)c3)n2)cn1` [Example 20, 2-(3-Fluorophenyl)-N-[(2R)-3-hydroxy-3-methylbutan-2-yl]-6-(6-methoxypyridin-3-yl)-3-oxo-2,3-dihydropyridazine-4-carboxamide] gave a pIC50 of 6.29.

`Cc1ccc(-c2cc(C(=O)N[C@@H](C)CO)c(=O)n(-c3cccc(F)c3)n2)cn1` [Example 23, 2-(3-Fluorophenyl)-N-[(2S)-1-hydroxypropan-2-yl]-6-(6-methylpyridin-3-yl)-3-oxo-2,3-dihydropyridazine-4-carboxamide]: the negative-log IC50 (pIC50) was 6.58.

`C[C@@H](CO)NC(=O)c1cc(-c2ccc(Cl)cn2)nn(-c2cccc(F)c2)c1=O` [Example 24, 6-(5-Chloropyridin-2-yl)-2-(3-fluorophenyl)-N-[(2S)-1-hydroxypropan-2-yl]-3-oxo-2,3-dihydropyridazine-4-carboxamide] gave a pIC50 of 6.45. The pIC50 values of the last two compounds are within 0.2 log units of each other.

Consider `C[C@@H](CO)NC(=O)c1cc(-c2ccc(C(F)(F)F)cn2)nn(-c2cccc(F)c2)c1=O` [Example 25, 2-(3-Fluorophenyl)-N-[(2S)-1-hydroxypropan-2-yl]-3-oxo-6-[5-(trifluoromethyl)pyridin-2-yl]-2,3-dihydropyridazine-4-carboxamide], for which the pIC50 was 7.07.

With `O=C(N[C@@H]1CSC[C@@H]1O)c1cc(-c2ccc(C(F)(F)F)nc2)nn(-c2cccc(F)c2)c1=O` [Example 26, 2-(3-Fluorophenyl)-N-[(3S,4R)-4-hydroxytetrahydrothiophen-3-yl]-3-oxo-6-[6-(trifluoromethyl)pyridin-3-yl]-2,3-dihydropyridazine-4-carboxamide], the negative-log IC50 (pIC50) was 5.24.

`CC(C)(O)[C@@H](NC(=O)c1cc(-c2ccc(C(F)F)nc2)nn(-c2cccc(F)c2)c1=O)C1CC1` [Example 27, N-[(1S)-1-Cyclopropyl-2-hydroxy-2-methylpropyl]-6-[6-(difluoromethyl)pyridin-3-yl]-2-(3-fluorophenyl)-3-oxo-2,3-dihydropyridazine-4-carboxamide] gave a pIC50 of 8.39.

As for `O=C(N[C@H](CO)C(F)(F)F)c1cc(-c2ccc(C(F)F)nc2)nn(-c2cccc(F)c2)c1=O` [Example 28, 6-[6-(Difluoromethyl)pyridin-3-yl]-2-(3-fluorophenyl)-3-oxo-N-[(2R)-1,1,1-trifluoro-3-hydroxypropan-2-yl]-2,3-dihydropyridazine-4-carboxamide], the negative-log IC50 (pIC50) was 8.18.

In turn, `O=C(N[C@H](CO)C1CC1)c1cc(-c2ccc(C(F)F)nc2)nn(-c2cccc(F)c2)c1=O` [Example 29, N-[(1S)-1-Cyclopropyl-2-hydroxyethyl]-6-[6-(difluoromethyl)pyridin-3-yl]-2-(3-fluorophenyl)-3-oxo-2,3-dihydropyridazine-4-carboxamide] gave a pIC50 of 7.82.

In turn, `O=C(N[C@H]1CCC[C@H]1O)c1cc(-c2ccc(C(F)F)nc2)nn(-c2cccc(F)c2)c1=O` [Example 30, 6-[6-(Difluoromethyl)pyridin-3-yl]-2-(3-fluorophenyl)-N-[(1S,2R)-2-hydroxycyclopentyl]-3-oxo-2,3-dihydropyridazine-4-carboxamide] showed a negative-log IC50 (pIC50) of 7.66.

`O=C(NCC1(O)CCCCC1)c1cc(-c2ccc(C(F)F)nc2)nn(-c2cccc(F)c2)c1=O` [Example 31, 6-[6-(Difluoromethyl)pyridin-3-yl]-2-(3-fluorophenyl)-N-[(1-hydroxycyclohexyl)methyl]-3-oxo-2,3-dihydropyridazine-4-carboxamide]: the pIC50 was 7.50.

Turning to `N#C[C@@H](CO)NC(=O)c1cc(-c2ccc(C(F)F)nc2)nn(-c2cccc(F)c2)c1=O` [Example 32, N-[(1S)-1-Cyano-2-hydroxyethyl]-6-[6-(difluoromethyl)pyridin-3-yl]-2-(3-fluorophenyl)-3-oxo-2,3-dihydropyridazine-4-carboxamide], the negative-log IC50 (pIC50) is 7.25.

`O=C(N[C@H]1COC[C@H]1O)c1cc(-c2ccc(C(F)F)nc2)nn(-c2cccc(F)c2)c1=O` [Example 33, 6-[6-(Difluoromethyl)pyridin-3-yl]-2-(3-fluorophenyl)-N-[(3S,4S)-4-hydroxyoxolan-3-yl]-3-oxo-2,3-dihydropyridazine-4-carboxamide] showed a pIC50 of 7.12.

As to `CC(C)(O)CNC(=O)c1cc(-c2ccc(C(F)F)nc2)nn(-c2cccc(F)c2)c1=O` [Example 34, 6-[6-(Difluoromethyl)pyridin-3-yl]-2-(3-fluorophenyl)-N-(2-hydroxy-2-methylpropyl)-3-oxo-2,3-dihydropyridazine-4-carboxamide], the pIC50 was 6.81.

In the case of `O=C(N[C@H]1COCC[C@H]1O)c1cc(-c2ccc(C(F)F)nc2)nn(-c2cccc(F)c2)c1=O` [Example 35, 1,5-Anhydro-2,4-dideoxy-2-[({6-[6-(difluoromethyl)pyridin-3-yl]-2-(3-fluorophenyl)-3-oxo-2,3-dihydropyridazin-4-yl}carbonyl)amino]-D-erythro-pentitol], the pIC50 is 6.76. This pIC50 and that of the compound before are within 0.2 log units of each other.

Regarding `O=C(NC(CO)C1CCOC1)c1cc(-c2ccc(C(F)F)nc2)nn(-c2cccc(F)c2)c1=O` (centres unmarked) [Example 36, 6-[6-(Difluoromethyl)pyridin-3-yl]-2-(3-fluorophenyl)-N-[2-hydroxy-1-(tetrahydrofuran-3-yl)ethyl]-3-oxo-2,3-dihydropyridazine-4-carboxamide], the negative-log IC50 (pIC50) is 6.71.

As to `O=C(N[C@H]1COCC[C@@H]1O)c1cc(-c2ccc(C(F)F)nc2)nn(-c2cccc(F)c2)c1=O` [Example 37, 1,5-Anhydro-2,4-dideoxy-2-[({6-[6-(difluoromethyl)pyridin-3-yl]-2-(3-fluorophenyl)-3-oxo-2,3-dihydropyridazin-4-yl}carbonyl)amino]-L-threo-pentitol], the negative-log IC50 (pIC50) was 6.57. The pIC50 values of the last two compounds are within 0.2 log units of each other.

The compound `O=C(N[C@H]1COC[C@@H]1O)c1cc(-c2ccc(C(F)F)nc2)nn(-c2cccc(F)c2)c1=O` [Example 38, 6-[6-(Difluoromethyl)pyridin-3-yl]-2-(3-fluorophenyl)-N-[(3S,4R)-4-hydroxytetrahydrofuran-3-yl]-3-oxo-2,3-dihydropyridazine-4-carboxamide] gave a pIC50 of 6.43.

The values above are taken from patent US11591311B2, “3-oxo-6-heteroaryl-2-phenyl-2,3-dihydropyridazine-4-carboxamides” (priority 2017, dated 2023).
